Test results: patent US6005007A, “Retinoids, methods for their production and use” (priority 1997, dated 1999)

Legend:
RXRγ = target: T1, RXRγ (Mus musculus, UniProt P28705); assay: Co-transfection assay, RXRγ agonist activity; assay type: cell-based; conditions: CV-1 cells, luciferase reporter, read-out: RXRγ Pot
T1 construct: expressed in transfected cells; host or cells: CV-1 (African green monkey kidney fibroblasts)
T1 sequence (P28705 1-463): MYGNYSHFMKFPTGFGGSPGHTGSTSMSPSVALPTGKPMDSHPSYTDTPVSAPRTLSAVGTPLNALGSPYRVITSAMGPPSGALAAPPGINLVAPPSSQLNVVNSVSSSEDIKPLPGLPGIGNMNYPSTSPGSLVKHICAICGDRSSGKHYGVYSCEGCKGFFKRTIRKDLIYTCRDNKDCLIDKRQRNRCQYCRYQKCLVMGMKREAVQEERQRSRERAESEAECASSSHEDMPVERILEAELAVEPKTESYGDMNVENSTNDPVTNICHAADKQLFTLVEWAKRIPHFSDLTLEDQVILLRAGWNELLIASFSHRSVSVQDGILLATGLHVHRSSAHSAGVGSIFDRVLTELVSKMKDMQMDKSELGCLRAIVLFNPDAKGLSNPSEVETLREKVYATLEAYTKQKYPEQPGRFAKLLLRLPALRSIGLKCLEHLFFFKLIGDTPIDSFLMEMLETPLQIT

RARβ = target: T2, RARβ (Homo sapiens, UniProt P10826); assay: Co-transfection assay, RARβ agonist activity; assay type: cell-based; design: expressed in transfected cells; host or cells: CV-1 (African green monkey kidney fibroblasts); conditions: CV-1 cells, luciferase reporter, read-out: RARβ Pot
T2 sequence (P10826 1-448 isoform P10826-2): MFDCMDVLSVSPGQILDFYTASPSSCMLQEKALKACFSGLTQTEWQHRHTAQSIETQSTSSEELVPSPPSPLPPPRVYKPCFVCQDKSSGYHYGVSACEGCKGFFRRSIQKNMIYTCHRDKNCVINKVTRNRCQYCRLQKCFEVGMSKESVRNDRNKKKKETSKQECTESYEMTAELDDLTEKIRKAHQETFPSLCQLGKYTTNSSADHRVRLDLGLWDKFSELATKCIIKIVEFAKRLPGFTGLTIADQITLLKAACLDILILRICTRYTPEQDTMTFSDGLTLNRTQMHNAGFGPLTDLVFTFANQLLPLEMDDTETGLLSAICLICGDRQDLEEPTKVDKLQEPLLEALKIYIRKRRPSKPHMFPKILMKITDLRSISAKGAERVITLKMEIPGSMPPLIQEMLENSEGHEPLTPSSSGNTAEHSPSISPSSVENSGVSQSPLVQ

RXRβ = target: T3, RXRβ (Mus musculus, UniProt P28704); assay: Receptor binding, RXRβ; conditions: tritiated retinoid competition
T3 sequence (P28704 1-520): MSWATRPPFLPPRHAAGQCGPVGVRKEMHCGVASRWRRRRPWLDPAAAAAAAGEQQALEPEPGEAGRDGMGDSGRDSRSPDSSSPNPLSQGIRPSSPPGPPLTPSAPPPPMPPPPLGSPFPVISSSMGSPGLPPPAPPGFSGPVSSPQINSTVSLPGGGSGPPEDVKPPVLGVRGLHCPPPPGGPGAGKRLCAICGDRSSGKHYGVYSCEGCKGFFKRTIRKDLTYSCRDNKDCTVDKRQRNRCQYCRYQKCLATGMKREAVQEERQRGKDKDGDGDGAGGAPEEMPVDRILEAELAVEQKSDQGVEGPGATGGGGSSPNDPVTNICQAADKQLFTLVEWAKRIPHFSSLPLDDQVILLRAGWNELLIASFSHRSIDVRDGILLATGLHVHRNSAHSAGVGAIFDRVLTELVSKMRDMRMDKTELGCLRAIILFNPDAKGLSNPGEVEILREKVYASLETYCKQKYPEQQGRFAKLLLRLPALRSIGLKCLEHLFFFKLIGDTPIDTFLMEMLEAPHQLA

| Compound | EC50 (RXRγ) [nM] | EC50 (RARβ) [nM] | Kd (RXRβ) [nM] |
| --- | --- | --- | --- |
| CC(/C=C/CC1(c2ccc3c(c2)C(C)(C)CCC3(C)C)CC1)=C\C(=O)O [Compound 101, (2E, 4E)-6-[1-(5,5,8,8-Tetramethyl-5,6,7,8-tetrahydronaphtha-len-2-yl)cyclopropanyl]-3-methyl hexadienoic acid] | 14 | 17 | 6 |
| CC(/C=C/CC1(c2cc(C(C)(C)C)cc3c2CCC3(C)C)CC1)=C\C(=O)O [Compound 107, (2E, 4E)-6-[1-(6-t-butyl-1,1-dimethyl-indan-4-yl)-cyclopropyl]-3-methyl hexadienoic acid] | 20 | > 10000 | 15 |
| CC(/C=C/CC1(c2ccc3c(c2)C(C)(C)CCC3(C)C)CCCC1)=C\C(=O)O [Compound 108, (2E, 4E)-6-[(5,5,8,8-Tetramethyl-5,6,7,8-tetrahydronaphtha-len-2-yl)cyclopentane-1-yl]-3-methyl hexadienoic acid] | 66 | > 10000 | 357 |
